In US12091425B2 (AMGEN INC., priority 2016, dated 2024) one finds IC50 data, which are given here for ten compounds.

The target of the first assay is T1, Mcl-1/Bim interaction, recombinant human Mcl-1 (171-327) (Homo sapiens, UniProt Q07820).
T1 construct: made in house
T1 sequence (Q07820 171-327): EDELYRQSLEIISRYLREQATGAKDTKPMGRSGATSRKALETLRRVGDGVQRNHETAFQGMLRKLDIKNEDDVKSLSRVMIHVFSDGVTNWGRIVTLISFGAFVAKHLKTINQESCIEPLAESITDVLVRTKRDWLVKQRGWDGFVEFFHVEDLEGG
Kind of assay: Cell free Mcl-1: Bim Affinity Assay (Mcl-1 HTRF). The class given is binding. The conditions noted are these: TR-FRET, 0.1 nM Mcl-1 (171-327), 0.05 nM biotin-Bim (51-76). The essentials: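 Compounds were mixed with the protein and a biotinylated Bim peptide spanning human residues 51-76. Plates were left overnight, then TR-FRET signal was measured. A four-parameter sigmoidal model applied to duplicate competition data gave IC50.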
(In general: In TR-FRET formats the signal depends on donor and acceptor labels being close together.)
In general, IC50 refers to the concentration needed to halve the response being measured. With `CC[C@@H]1CC/C=C/[C@H](OCC(=O)Nc2ccncc2)[C@@H]2CC[C@H]2CN2C[C@@]3(CCCc4cc(Cl)ccc43)COc3ccc(cc32)C(=O)NS1(=O)=O` [Example 1000, 2-(((1S,3′R,6′R,7′S,8′E,12′R)-6-chloro-12′-ethyl-13′,13′-dioxido-15′-oxo-3,4-dihydro-2H-spiro[naphthalene-1,22′-[20]oxa[13]thia[1,14]diazatetracyclo[14.7.2.0^3,6.0^19,24]pentacosa [8,16,18,24]tetraen]-7′-yl)oxy)-N-4-pyridinylacetamide], the IC50 was 3.14 nM.
Turning to `O=C1NS(=O)(=O)CCCCCS(=O)(=O)C2CCC2CN2C[C@@]3(CCCc4cc(Cl)ccc43)COc3ccc1cc32` (mixture of isomers) [Example 196], the IC50 worked out at 22.2 nM.

The same assay, now with this note: cell free Mcl-1:Bim TR-FRET, recombinant human Mcl-1 (171-327).
In the case of `O=C1NS(=O)(=O)CC/C=C\[C@@H](O)C[C@@H]2CC[C@H]2CN2C[C@@]3(CCCc4cc(Cl)ccc43)COc3ccc1cc32` (single isomer, unassigned) [Example 883, (1S,3′R,6′S,8′S,9′Z)-6-chloro-8′-hydroxy-3,4-dihydro-2H,15′H-spiro[naphthalene-1,22′[20]oxa[13]thia[1,14]diazatetracyclo[14.7.2.0^3,6.0^19,24]pentacosa[9,16,18,24]tetraen]-15′-one 13′,13′-dioxide or (1S,3′R,6′S,8′R,9′Z)-6-chloro-8′-hydroxy-3,4-dihydro-2H,15′H-spiro[naphthalene-1,22′-[20]oxa[13]thia[1,14]diazatetracyclo[14.7.2.0^3,6.0^19,24]pentacosa [9,16,18,24]tetraen]-15′-one 13′,13′-dioxide], the IC50 was 48.5 nM.
Still for that read-out and setting: under `O=C1NS(=O)(=O)CC=CCC(O)CC2CCC2CN2CC3(CCCc4cc(Cl)ccc43)COc3ccc1cc32` (single isomer, unassigned) [Example 913] stands 6.1 nM; under `C[C@H]1CCCC(=O)[C@@H]2CC[C@H]2CN2C[C@@]3(CCCc4cc(Cl)ccc43)COc3ccc(cc32)C(=O)NS1(=O)=O` (single isomer, unassigned) [Example 760], 15.8 nM.
Still for that read-out and setting: then `O=C1NS(=O)(=O)[C@H]2CCN(C2)C(=O)CC[C@@H]2CC[C@H]2CN2C[C@@]3(CCCc4cc(Cl)ccc43)COc3ccc1cc32` (single isomer, unassigned) [Example 946], with 4.15 nM; and `O=C1NS(=O)(=O)CCC[C@@H]2C[C@H]2[C@H](O)[C@@H]2CC[C@H]2CN2C[C@@]3(CCCc4cc(Cl)ccc43)COc3ccc1cc32` (single isomer, unassigned) [Example 950], with 1.49 nM.
Consider `O=C(C[C@@H]1CC/C=C/[C@H](O)[C@@H]2CC[C@H]2CN2C[C@@]3(CCCc4cc(Cl)ccc43)COc3ccc(cc32)C(=O)NS1(=O)=O)Nc1ccccc1` (single isomer, unassigned) [Example 630], for which the IC50 stood at 1.61 nM.
Regarding `O=C1C[C@H](O)[C@@H]2CC[C@H]2CN2C[C@@]3(CCCc4cc(Cl)ccc43)COc3ccc(cc32)C(=O)NS(=O)(=O)CCN1` (single isomer, unassigned) [Example 680], the IC50 was 26.8 nM.
Still for that read-out and setting: then `CC(=O)N[C@@H]1CCCCCS(=O)(=O)NC(=O)c2ccc3c(c2)N(C[C@@H]2CC[C@H]21)C[C@@]1(CCCc2cc(Cl)ccc21)CO3` (single isomer, unassigned) [Example 935, N-((1S,3′R,6′R,7′R)-6-chloro-13′,13′-dioxido-15′-oxo-3,4-dihydro-2H-spiro[naphthalene-1,22′-[20]oxa[13]thia[1,14]diazatetracyclo[14.7.2.0^3,6.0^19,24]pentacosa [16,18,24]trien]-7′-yl)acetamide or N-((1S,3′R,6′R,7′S)-6-chloro-13′,13′-dioxido-15′-oxo-3,4-dihydro-2H-spiro[naphthalene-1,22′-[20]oxa[13]thia[1,14]diazatetracyclo[14.7.2.0^3,6.0^19,24]pentacosa [16,18,24]trien]-7′-yl)acetamide], with 2.07 nM.
